What all share (assay type): biochemical
Experiment [1] addresses T1, human recombinant acetylcholinesterase (hrAChE) (Homo sapiens, UniProt P22303).
T1 construct: made in house; host or cells: Hek293 derivatives (transient transfection, pcDNA3.4), collected from culture supernatant
The experiment can be described thus: hrAChE inhibition, Ellman method (screening and IC50). Particulars: for hrAChE inhibition (screening, in words): screening at 1 and 10 µM; for IC50: mean ± standard error of the mean, triplicate determinations; for inhibition at 10 µM: read-out: hrAChE inhibition. Here is the method: (§1) The hrAChE and hrBuChE were prepared as recombinant proteins at the University of Hradec Kralove. For their production, the mammalian expression system was used. Briefly, the DNA sequence encoding human AChE and BuChE was obtained from UniProtKB Server (www.uniprot.org, accession numbers: P22303 and P06276) and de novo synthesized as GeneArt Strings DNA fragments by GeneArt Gene Synthesis Service (Thermo Fisher Scientific, Pardubice, Czech Republic). The DNA fragments were PCR-amplified using gene-specific primers, adding the DNA sequence for C-terminal 6× His-tag. The amplicons were inserted into the mammalian pcDNA3.4 vector by TOPO cloning technology, and the final DNA constructs were verified by Sanger sequencing (ABI PRISM 3130xl). For protein expression, the DNA constructs were transiently transfected into Hek293 derivatives. Recombinant proteins were collected from culture supernatant 6 days later and stored at −80 °C for further purification.
(§2) The hrAChE and hrBuChE were purified using a NGC Medium-Pressure Chromatography System (Bio-Rad, USA). The total volume of 6–8 mL of medium containing secreted protein was desalted using 5 mL HiTrap Desalting column (GE Healthcare, Prague, Czech Republic) equilibrated with buffer A (20 mM sodium phosphate buffer, 150 mM NaCl, 15 mM imidazole, and 20% glycerol; pH 7.4). Acquired supernatant was loaded onto a 1 mL HisTrap FF column (GE Healthcare, Prague, Czech Republic) equilibrated with buffer A. Captured proteins were eluted with buffer B (20 mM sodium phosphate buffer, 150 mM NaCl, 500 mM imidazole, and 20% glycerol; pH 7.4). Imidazole was subsequently removed by repeated centrifugation in Amicon Ultra-4 (Ultracel-10K) tube (Merck Millipore). Protein concentration was determined by linearized Bradford method adapted for 96-well plate.
(§3) The catalytic activity of enzymes was determined by standard Ellman method adapted for 96-well plates. […]. The mixture was pre-incubated at 37 °C for 15 min, and subsequently substrate acetylthiocholine iodide (ATChI) or butyrylthiocholine iodide (BuTChI) was added to the final concentration of 1000 µM. The final volume of reaction was 100 µL. The product formed during the reaction 5-thio-2-nitrobenzoic acid (TNB) was determined by following its absorbance at 436 nm. The catalytic activity was evaluated as amount of product (%) formed by enzyme after 10 min of incubation at 37 °C. IC50 values of individual compounds were determined by non-linear regression using GraphPad Prism 7.

Experiment [2] concerns the target T2, human recombinant butyrylcholinesterase (hrBuChE) (Homo sapiens, UniProt P06276).
T2 construct: made in house; host or cells: Hek293 derivatives (transient transfection, pcDNA3.4), collected from culture supernatant
The experiment in a line: hrBuChE inhibition, Ellman method (screening and IC50). Conditions: for inhibition at 10 µM: at 10 µM concentration; for IC50: mean ± standard error of the mean, triplicate determinations. Here is the method: as §1, §2, §3
A general note: In Ellman's method for cholinesterases, released thiocholine reacts with DTNB.

Another experiment concerns the target T3, hrAChE (Homo sapiens, UniProt P22303).
T3 construct: made in house; host or cells: Hek293 derivatives (transient transfection, pcDNA3.4), collected from culture supernatant
The experiment in a line: Inhibition kinetics of hrAChE (Lineweaver-Burk). As to the method:
Compound with the highest inhibition potential against hrAChE was further analysed regarding its inhibition kinetics parameters (inhibition mechanism and inhibitory constant). […]. Inhibition mechanism and kinetic constant were determined by non-linear regression and double reciprocal method by Lineweaver-Burk using GraphPad Prism 7.

Results on six compounds are retold here after publication PMC7312762, “Acetylcholinesterase Inhibition of Diversely Functionalized Quinolinones for Alzheimer’s Disease Therapy” (International Journal of Molecular Sciences, 2020).

Where two headings read alike, the source gives them in different places.

T2 sequence (P06276 29-602): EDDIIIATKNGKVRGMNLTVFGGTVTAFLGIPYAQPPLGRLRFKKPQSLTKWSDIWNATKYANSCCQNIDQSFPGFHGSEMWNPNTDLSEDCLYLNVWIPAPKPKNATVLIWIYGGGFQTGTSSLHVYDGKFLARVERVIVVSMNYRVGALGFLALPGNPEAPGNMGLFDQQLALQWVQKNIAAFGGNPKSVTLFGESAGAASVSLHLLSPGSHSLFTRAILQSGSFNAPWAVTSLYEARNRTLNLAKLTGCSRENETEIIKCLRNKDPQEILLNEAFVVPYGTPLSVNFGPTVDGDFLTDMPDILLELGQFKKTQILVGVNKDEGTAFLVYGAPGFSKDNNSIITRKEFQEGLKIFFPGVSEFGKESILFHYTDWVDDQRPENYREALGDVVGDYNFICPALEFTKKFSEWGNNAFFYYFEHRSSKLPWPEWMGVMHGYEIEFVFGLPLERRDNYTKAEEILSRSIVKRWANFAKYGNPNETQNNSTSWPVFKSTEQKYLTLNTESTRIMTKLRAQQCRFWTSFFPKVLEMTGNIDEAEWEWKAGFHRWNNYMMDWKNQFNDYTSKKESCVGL
T1 sequence (P22303 32-614): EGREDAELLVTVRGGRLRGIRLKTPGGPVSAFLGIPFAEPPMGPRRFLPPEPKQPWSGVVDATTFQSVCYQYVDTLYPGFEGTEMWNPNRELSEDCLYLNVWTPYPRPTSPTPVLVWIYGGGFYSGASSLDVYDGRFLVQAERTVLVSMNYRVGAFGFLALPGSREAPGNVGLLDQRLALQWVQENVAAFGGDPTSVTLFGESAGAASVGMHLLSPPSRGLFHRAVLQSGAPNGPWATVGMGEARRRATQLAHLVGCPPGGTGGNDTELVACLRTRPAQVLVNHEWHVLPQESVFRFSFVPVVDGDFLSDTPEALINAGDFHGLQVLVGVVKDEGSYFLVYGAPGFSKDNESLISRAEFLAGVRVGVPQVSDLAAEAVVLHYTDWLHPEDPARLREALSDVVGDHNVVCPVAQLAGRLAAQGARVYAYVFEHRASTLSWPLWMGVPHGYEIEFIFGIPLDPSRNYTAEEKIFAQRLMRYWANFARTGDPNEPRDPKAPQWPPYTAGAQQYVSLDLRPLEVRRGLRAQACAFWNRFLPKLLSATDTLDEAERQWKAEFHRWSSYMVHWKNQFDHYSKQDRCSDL
T3 sequence (P22303 32-614): as above

Regarding `CN1CCN(CCCCOc2ccc3c(c2)NC(=O)CC3)CC1` [DQN3, 7-[4-(4-Methylpiperazin-1-yl)butoxy]-3,4-dihydroquinolin-2(1H)-one], the “hrAChE inhibition (screening, in words)” value in experiment [1] was “low inhibition percentage”.

For `CC(C)N1CCN(CCCCOc2ccc3c(c2)NC(=O)CC3)CC1` [DQN7, 7-[4-(4-Isopropylpiperazin-1-yl)butoxy]-3,4-dihydroquinolin-2(1H)-one], in experiment [1], the “Selectivity Index IC50 (hrBuChE)/IC50 (hrAChE)” value (“Selectivity Index IC50” below) came to 11, the IC50 turned out to be 1580 ± 150 nM and the inhibition at 10 µM fell in the range of 88 to 95%. In experiment [2], the inhibition at 10 µM lay in the range of 45 to 65% and the IC50 was determined as 16.7 ± 0.46 µM.

Take `CN1CCN(CCCCOc2ccc3ccc(=O)[nH]c3c2)CC1` [QN4, 7-[4-(4-Methylpiperazin-1-yl)butoxy]quinolin-2(1H)-one]: the “hrAChE inhibition (screening, in words)” value in experiment [1] is “low inhibition percentage”.

As for `CN1CCN(CCCCCOc2ccc3ccc(=O)[nH]c3c2)CC1` [QN5, 7-[5-(4-Methylpiperazin-1-yl)pentyloxy]quinolin-2(1H)-one], the “hrAChE inhibition (screening, in words)” value in experiment [1] is “low inhibition percentage”.

On to `CC(C)N1CCN(CCCCOc2ccc3ccc(=O)[nH]c3c2)CC1` [QN8, 7-[4-(4-Isopropylpiperazin-1-yl)butoxy]quinolin-2(1H)-one], for which the “Selectivity Index IC50” value in experiment [1] was 44. The inhibition at 10 µM fell in the range of 88 to 95% in experiment [1] (at 10 µM concentration) and 45 to 65% in experiment [2]. Further, the IC50 in experiment [1] is 290 ± 20 nM; in experiment [2], 12.7 ± 0.45 µM. Besides, the “type of hrAChE inhibition” value at hrAChE (kinetic experiments) is “non-competitive”. Affinity at hrAChE (non-competitive inhibition, ATChI 25-2000 µM) was put at a Ki of 79 nM.

For `CC(C)N1CCN(CCCCCOc2ccc3ccc(=O)[nH]c3c2)CC1` [QN9, 7-[5-(4-Isopropylpiperazin-1-yl)pentyloxy]quinolin-2(1H)-one], in experiment [1], the “Selectivity Index IC50” value is given as 7 and the IC50 came to 960 ± 40 nM. The inhibition at 10 µM in experiment [1] (at 10 µM concentration) lay within 88 to 95%. For the same compound, in experiment [2], the inhibition at 10 µM was 45 to 65% and the IC50 is 6.7 ± 0.32 µM.

As usually defined, the IC50 is the concentration at which inhibition is half-maximal. As usually defined, the inhibition is how much of the control response was suppressed. Usually Ki stands for the dissociation constant of the complex between target and ligand, obtained from inhibition or displacement. A low value points to a stronger hold on the target.
